From ChEMBL document CHEMBL1134995, “Enhancement of pharmacokinetic properties and in vivo efficacy of benzylidene ketal M(2) muscarinic receptor antagonists via benzamide modification” (Bioorg Med Chem Lett, 2002)
The source made the active and inactive calls. The rule behind the calls is not given here.

Key:
[1] = Oral bioavailability in cynomolgus monkeys was determined; Acceptable; assay type: ADME, organism-based, Macaca fascicularis; conditions: cynomolgus monkey, in vivo
Rattus norvegicus [2] = test: Compound was tested for activity in rat passive avoidance response (PAR) experiment, pretreatment time 1 hr with oral dose ranging from 0.001 to 0.1 mg/kg; Active; assay type: functional, organism-based
Rattus norvegicus [3] = species on record: Rattus norvegicus; test: Efficacy was tested in a rat microdialysis assay where ACh release levels were measured; assay type: functional
Rattus norvegicus [4] = test: Effect of compound on heart rate in rats at 3 and 10 mg/kg was determined; Increase; assay type: functional, organism-based; set-up: dose 10 mg/kg
Rattus norvegicus [5] = test: Effect of compound on heart rate in rats at 1 mg/kg was determined; Not effected; assay type: functional, organism-based; set-up: dose 1 mg/kg
[6] = Area under curve was determined
[7] = target: T1, Muscarinic acetylcholine receptor M2 (Rattus norvegicus, UniProt P10980); test: Binding affinity towards Muscarinic acetylcholine receptor M2
T1 sequence (P10980 whole entry): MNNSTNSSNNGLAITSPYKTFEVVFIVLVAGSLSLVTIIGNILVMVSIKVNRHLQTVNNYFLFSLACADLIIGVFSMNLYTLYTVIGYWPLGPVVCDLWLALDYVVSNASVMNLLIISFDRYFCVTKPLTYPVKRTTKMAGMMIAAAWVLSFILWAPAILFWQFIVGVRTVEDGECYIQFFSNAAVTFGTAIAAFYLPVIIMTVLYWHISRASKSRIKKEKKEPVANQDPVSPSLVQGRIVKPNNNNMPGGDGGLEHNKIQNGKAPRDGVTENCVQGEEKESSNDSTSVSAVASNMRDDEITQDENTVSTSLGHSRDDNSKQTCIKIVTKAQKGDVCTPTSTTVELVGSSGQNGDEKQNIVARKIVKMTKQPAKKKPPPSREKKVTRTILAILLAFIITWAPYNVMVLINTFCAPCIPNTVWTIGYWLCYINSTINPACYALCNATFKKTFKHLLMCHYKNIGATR

[8] = Oral bioavailability in rats was determined; High; assay type: ADME, organism-based; conditions: rat, in vivo
[9] = target: Muscarinic receptor M1 and M2 (Rattus norvegicus) (UniProt P08482+P10980); test: Ratio of binding affinity of muscarinic M1 receptor to muscarinic M2 receptor; assay type: protein assay
Sequence of Muscarinic receptor M1 and M2 (Rattus norvegicus) (P08482 whole entry, looked up, one chain of several): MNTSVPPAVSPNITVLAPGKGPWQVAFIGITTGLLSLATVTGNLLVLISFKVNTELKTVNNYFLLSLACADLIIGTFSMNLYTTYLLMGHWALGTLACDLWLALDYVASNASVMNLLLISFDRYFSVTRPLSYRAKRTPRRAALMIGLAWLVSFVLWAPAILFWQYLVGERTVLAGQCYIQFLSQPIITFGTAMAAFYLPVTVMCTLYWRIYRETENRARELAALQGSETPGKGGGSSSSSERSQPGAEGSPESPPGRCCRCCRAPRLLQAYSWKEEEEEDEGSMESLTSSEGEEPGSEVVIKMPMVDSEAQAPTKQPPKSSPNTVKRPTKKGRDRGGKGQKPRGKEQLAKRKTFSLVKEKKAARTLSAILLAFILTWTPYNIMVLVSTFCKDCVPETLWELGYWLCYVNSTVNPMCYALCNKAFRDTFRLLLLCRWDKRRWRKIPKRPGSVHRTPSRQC

[10] = target: Muscarinic receptor M2 and M3 (Rattus norvegicus) (UniProt P08483+P10980); test: Ratio of binding affinity for muscarinic M3 receptor to muscarinic M2 receptor; assay type: protein assay
Sequence of Muscarinic receptor M2 and M3 (Rattus norvegicus) (P08483 whole entry, looked up, one chain of several): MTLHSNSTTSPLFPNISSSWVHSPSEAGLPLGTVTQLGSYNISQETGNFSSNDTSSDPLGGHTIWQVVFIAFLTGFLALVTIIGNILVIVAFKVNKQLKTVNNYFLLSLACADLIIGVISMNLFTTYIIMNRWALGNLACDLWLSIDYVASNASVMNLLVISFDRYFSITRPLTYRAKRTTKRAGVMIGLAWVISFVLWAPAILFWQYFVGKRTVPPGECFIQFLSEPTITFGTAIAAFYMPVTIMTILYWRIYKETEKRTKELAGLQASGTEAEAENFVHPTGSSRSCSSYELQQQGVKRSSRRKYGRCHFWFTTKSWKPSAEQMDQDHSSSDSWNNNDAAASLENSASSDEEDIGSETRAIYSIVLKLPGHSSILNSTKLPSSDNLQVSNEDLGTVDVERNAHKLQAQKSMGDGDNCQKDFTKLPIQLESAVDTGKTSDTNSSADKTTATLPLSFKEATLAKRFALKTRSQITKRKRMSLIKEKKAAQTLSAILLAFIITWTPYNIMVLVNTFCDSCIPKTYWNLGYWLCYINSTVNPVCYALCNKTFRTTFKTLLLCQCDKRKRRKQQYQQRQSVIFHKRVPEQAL

| SMILES | Ki [7] [nM] | Ratio [9] | also measured |
| --- | --- | --- | --- |
| COc1ccc(S(=O)(=O)c2ccc(C3(C4CCN(C5CCN(C(=O)c6ccc(F)c7ccccc67)CC5)CC4)OCCO3)cc2)cc1 |  |  | Acetylcholine release (Rattus norvegicus [3]): 180% |
| COc1ccc(S(=O)(=O)c2ccc(C3(C4CCN(C5CCN(C(=O)c6ccc(F)cc6N)CC5)CC4)OCCO3)cc2)cc1 | 0.44 |  |  |
| COc1ccc(S(=O)(=O)c2ccc(C3(C4CCN(C5CCN(C(=O)c6cccc(N)c6Cl)CC5)CC4)OCCO3)cc2)cc1 | 0.53 |  | Acetylcholine release (Rattus norvegicus [3]): 135% |
| COc1ccc(S(=O)(=O)c2ccc(C3(C4CCN(C5CCN(C(=O)c6cccc(Cl)c6C)CC5)CC4)OCCO3)cc2)cc1 | 0.72 | 42 |  |
| COc1ccc(S(=O)(=O)c2ccc(C3(C4CCN(C5CCN(C(=O)c6cccc(Cl)c6N)CC5)CC4)OCCO3)cc2)cc1 | 1.1 |  |  |
| COc1ccc(S(=O)(=O)c2ccc(C3(C4CCN(C5CCN(C(=O)c6ccccc6C(F)(F)F)CC5)CC4)OCCO3)cc2)cc1 | 1 |  |  |
| COc1ccc(S(=O)(=O)c2ccc(C3(C4CCN(C5CCN(C(=O)c6ccccc6Br)CC5)CC4)OCCO3)cc2)cc1 | 1.8 |  |  |
| COc1ccc(S(=O)(=O)c2ccc(C3(C4CCN(C5CCN(C(=O)c6cccc(C)c6C)CC5)CC4)OCCO3)cc2)cc1 | 1.4 | 66 | Ratio [10]: 40 |
| COc1ccc([S+]([O-])c2ccc(C3(C4CCN(C5CCN(C(=O)c6ccccc6C)CC5)CC4)OCCO3)cc2)cc1 (configuration not stated) | 2.5 | 146 | Ratio [10]: 35 |
| COc1ccc(S(=O)(=O)c2ccc(C3(C4CCN(C5CCN(C(=O)c6cccc(N)c6C)CC5)CC4)OCCO3)cc2)cc1 | 0.4 |  |  |
| COc1ccc(S(=O)(=O)c2ccc(C3(C4CCN(C5CCN(C(=O)c6ccccc6N)CC5)CC4)OCCO3)cc2)cc1 | 1.5 |  |  |
| COc1ccc(S(=O)(=O)c2ccc(C3(C4CCN(C5CCN(C(=O)c6cc(N)ccc6Cl)CC5)CC4)OCCO3)cc2)cc1 | 0.53 |  |  |
| Cc1ccccc1C(=O)N1CCC(N2CCC(C3(c4ccc(S(=O)(=O)c5ccc6c(c5)OCO6)cc4)OCCO3)CC2)CC1 | 0.065 | 28 | Ratio [10]: 8 |
| COc1ccc(S(=O)(=O)c2ccc(C3(C4CCN(C5CCN(C(=O)c6cccc(F)c6N)CC5)CC4)OCCO3)cc2)cc1 | 0.51 |  |  |
| CNc1ccccc1C(=O)N1CCC(N2CCC(C3(c4ccc(S(=O)(=O)c5ccc(OC)cc5)cc4)OCCO3)CC2)CC1 | 0.9 |  |  |

The remaining compounds from weak to strong by Ki [7], led by results:

| Ki [7] [nM] | Ratio [9] | SMILES | also measured |
| --- | --- | --- | --- |
| 51 | 14 | COc1ccc([S+]([O-])c2ccc(C3(C4CCN(C5CCN(C(=O)c6ccccc6C)CC5)CC4)O[C@H](C)[C@@H](C)O3)cc2)cc1 (some centres not stated) |  |
| 18 | 32 | COc1ccc(S(=O)(=O)c2ccc(C3(C4CCN(C5CCN(C(=O)c6ccccc6C)CC5)CC4)O[C@H](C)[C@@H](C)O3)cc2)cc1 |  |
| 4.8 | 49 | COc1ccc(S(=O)(=O)c2ccc(C3(C4CCN(C5CCN(C(=O)c6ccccc6F)CC5)CC4)OCCO3)cc2)cc1 | Ratio [10]: 8 |
| 2.3 |  | COc1ccc(S(=O)(=O)c2ccc(C3(C4CCN(C5CCN(C(=O)c6c(Cl)cccc6Cl)CC5)CC4)OCCO3)cc2)cc1 |  |
| 1.6 |  | COc1ccc(S(=O)(=O)c2ccc(C3(C4CCN(C5CCN(C(=O)c6ccccc6Cl)CC5)CC4)OCCO3)cc2)cc1 |  |
| 1.2 |  | COc1ccc(S(=O)(=O)c2ccc(C3(C4CCN(C5CCN(C(=O)c6ccccc6OC)CC5)CC4)OCCO3)cc2)cc1 |  |
| 0.86 | 89 | COc1ccc(S(=O)(=O)c2ccc(C3(C4CCN(C5CCN(C(=O)c6ccccc6C)CC5)CC4)SCCS3)cc2)cc1 | Ratio [10]: 15 |
| 0.78 |  | COc1ccc(S(=O)(=O)c2ccc(C3(C4CCN(C5CCN(C(=O)c6cccc(N)c6)CC5)CC4)OCCO3)cc2)cc1 |  |
| 0.68 |  | COc1ccc(S(=O)(=O)c2ccc(C3(C4CCN(C5CCN(C(=O)c6cc(F)ccc6N)CC5)CC4)OCCO3)cc2)cc1 |  |
| 0.54 |  | COc1ccc(S(=O)(=O)c2ccc(C3(C4CCN(C5CCN(C(=O)c6ccccc6C)CC5)CC4)OCCO3)cc2)cc1 |  |
| 0.39 |  | COc1ccc(S(=O)(=O)c2ccc(C3(C4CCN(C5CCN(C(=O)c6cccc(C)c6N)CC5)CC4)OCCO3)cc2)cc1 | bioavailability [1]: 15%; Activity (Rattus norvegicus [2]): Active; Acetylcholine release (Rattus norvegicus [3]): 194%; Heart rate (Rattus norvegicus [4]): Increased heart rate; Heart rate (Rattus norvegicus [5]): inactive; AUC [6]: 1570 ng·h/mL; bioavailability [8]: 80% |
